# Data as given in US8003621B2, “Drug carriers” (Nitto Denko Corporation, priority 2007, dated 2011).
# Tested on: red blood cell
# Assay: Hemolytic assay
# Set-up: species or system nude mice
# Details: 0.2% TritonX-100, 100 μL/well with 10 μL of blood sample; 60 minutes at 37° C.
# Protocol: Blood samples of nude mice were collected in heparinize-tubes and were centrifuged at 700×g for 10 minutes. The supernatant was discarded, and the red blood cell pellet was washed three times with cold PBS (pH 7.4) and was re-suspended in the same buffer. Solutions of the polymers and the siEGFP of different concentrations were prepared in PBS buffers and were added to the round-bottom plate at 100 μL/well. Blood sample (10 μL) was added to each well, and the plate was incubated for 60 minutes at 37° C. The release of hemoglobin was determined by photospectrometric analysis after centrifugation (700 g for 10 min). The supernatant (100 μL) from each well was transferred into flat-bottom plate. Intensity of […] at 540 nm was measured by a plate reader.
substance,measurement,value
TritonX-100,hemolysis (control value),100%
